# Literature values in patent US8304000B2, “Process for preparing water extract of cinnamon” (Beijing Tang-An Nutrition & Healthcare Products Co. Ltd., priority 2010, dated 2012).
structure (smiles),measurement,setting,value
"O=c1ccc2ccccc2o1 [Coumarin, 1-benzopyran-2-one]",solubility in alcohol,alcohol,readily soluble
same,solubility in water,water,poorly soluble
